Laboratory results: patent publication US8609712B2, “Purification of progesterone receptor modulators” (Wyeth LLC, priority 0205, dated 2013)
Values after ≈ are worked out from the molar mass of the structure shown.

Assays:
Solubility in DMF = details: solvent DMF
physchem = details: organic solvent or mixture
[1] = Solubility of the isolated salt in NMP / DMPU; type: physicochemical
Description: 6-Bromo-4,4-dimethyl-benzoxazine-2-one (2.59 g) was dissolved in THF (50 mL) at ambient temperature followed by addition of sodium tert-butoxide (0.96 g). The mixture was gently heated until a solution was obtained.
Similarly, 6-bromo-4,4-dimethyl-benzoxazine-2-one (2.55 g) was reacted with lithium tert-butoxide (10 mL of 1M solution in THF).

Question: Which “solubility in DMF” value (Solubility in DMF) does the source give for “5′-(5-cyano-1-methyl-1H-pyrrol-2-yl)spiro[cyclohexane-1,3′-[3H]indol]-2′-ylidenecyanamide choline salt” here?
Answer: 11000 µg/mL

Question: Which solubility (physchem) does the source give for `Cn1c(C#N)ccc1-c1ccc2c(c1)C1(CCCCC1)C(=NC#N)N2` [5′-(5-Cyano-1-methyl-1H-pyrrol-2-yl)spiro[cyclohexane-1,3′-[3H]indol]-2′-ylidenecyanamide] here?
Answer: 3000 µg/mL (≈ 9.11 mM)

Question: For `CC1(C)OC(=O)Nc2ccc(Br)cc21.[Li]` [6-Bromo-4,4-Dimethyl-Benzoxazine-2-One Lithium Salt], which “solubility in dimethylpyrimidone (DMPU)” value ([1]; without heating) is on record?
Answer: soluble

Question: For `CC1(C)OC(=O)Nc2ccc(Br)cc21.[Na]` [6-Bromo-4,4-Dimethyl-Benzoxazine-2-One Sodium Salt], which “solubility in N-methylpyrrolidone (NMP) and dimethylpyrimidone (DMPU)” value ([1]; solvents heated to about 40 to about 50° C.) is on record?
Answer: soluble
